{"source": "patent US10473645B2", "about": "“Methods for identifying a receptor for a ligand and uses thereof” (UNIVERSITE DE GENEVE, priority 2014, dated 2019)", "key": {"Olfr556 [1]": {"molecular_target": "T1, Olfr556 (Mus musculus, UniProt B2RRG2)", "T1 sequence (B2RRG2 1-324)": "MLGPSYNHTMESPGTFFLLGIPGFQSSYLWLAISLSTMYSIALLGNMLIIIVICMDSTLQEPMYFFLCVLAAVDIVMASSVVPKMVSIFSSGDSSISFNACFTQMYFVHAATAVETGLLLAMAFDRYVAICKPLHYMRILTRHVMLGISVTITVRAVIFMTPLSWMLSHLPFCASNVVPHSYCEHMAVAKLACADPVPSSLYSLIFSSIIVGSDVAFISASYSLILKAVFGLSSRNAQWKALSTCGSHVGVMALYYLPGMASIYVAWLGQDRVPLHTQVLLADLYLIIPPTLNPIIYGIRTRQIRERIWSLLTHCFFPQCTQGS", "test": "OR transcript downregulation by RNAseq after in vivo exposure", "set-up": "from tissue; host or cells: main olfactory epithelium of exposed mice", "settings": "5% odorant, 5 hours, reduction larger than 20% = downregulated", "procedure": "Animals were exposed to 5% acetophenone for 5 hours before RNA extraction (as previously described). cDNA libraries were generated with the Truseq RNA and DNA sample preparation kits after selection of polyA-containing mRNAs. Adapters for RNAseq multiplexing were added to the cDNAs. The cDNA libraries were sequenced with a HiSeq®2500 Sequencing system. 100 bp reads were mapped using Bowtie2 with a 28 bp seed. The differential gene expression analyses were performed with DESeq2. Because of the high sequence similarity between OR gene paralogs, some reads are mapped to multiple OR genes. These reads were removed from the analysis.\nMice (n=6) were exposed to 5% acetophenone or to a “neutral” control condition for 5 hours. An olfactory cDNA library corresponding to each animal was deep sequenced and the ratios of odorant receptor mRNA concentrations relative to controls were plotted (FIG. 3). […] Based on transcriptional downregulation levels observed by RNAseq following acetophenone exposure, a list of 26 candidate responsive ORs was determined (FIG. 3), that reached 74% decrease (Olfr145) or even over 80% (Olfr169) relative to controls. […] The transcript downregulation of 21 out of the 26 olfactory receptor candidates obtained by RNAseq was confirmed by qPCR."}, "Olfr556 [2]": {"molecular_target": "T1, Olfr556", "settings": "expressed in HEK cells; previously shown; read-out: EC50 as agonist of Olfr556; cited from earlier work"}, "OSNs expressing olfr478": {"system": "OSNs expressing olfr478", "test": "pS6 immunolabeling with OR in situ hybridization after odorant exposure", "assay_type": "in vivo, mouse", "settings": "5% acetophenone, 60 minutes", "procedure": "(§1) In order to independently validate the identity of an acetophenone receptor obtained with the RNAseq approach, the potential colocalization following acetophenone exposure of a neuronal activity marker (the phosphorylated ribosomal protein S6 (pS6) (Knight et al., 2012, Cell, 151, 1126-1137) and specific olfactory receptors were evaluated. To this aim, in-situ hybridizations were performed on sections of olfactory tissue with probes targeting receptor mRNAs followed by immunolabeling of pS6. The probes used were directed against the transcripts of most of the ORs determined as responsive including Olfr983 transcripts (encoding a known acetophenone receptor), Olfr171 transcripts (encoding a known ethyl isobutyrate receptor), and Olfr145 transcripts, encoding a newly identified receptor by RNAseq. Before analysis, mice were exposed to either 5% acetophenone, 5% ethyl isobutyrate, or a negative control condition for 60 minutes. […] 66% (Olfr983) and 70% (Olfr145) of the neurons were positive for pS6 after acetophenone exposure, while only 11% of the neurons expressing Olfr171 were positive for pS6 after exposure to this compound."}, "OSNs expressing olfr922": {"system": "OSNs expressing olfr922", "test": "pS6 immunolabeling with OR in situ hybridization after odorant exposure", "assay_type": "in vivo, mouse", "settings": "5% acetophenone, 60 minutes", "procedure": "as §1"}, "OSNs expressing olfr109": {"system": "OSNs expressing olfr109", "test": "pS6 immunolabeling with OR in situ hybridization after odorant exposure", "assay_type": "in vivo, mouse", "settings": "5% acetophenone, 60 minutes", "procedure": "as §1"}, "OSNs expressing olfr30": {"system": "OSNs expressing olfr30", "test": "pS6 immunolabeling with OR in situ hybridization after odorant exposure", "assay_type": "in vivo, mouse", "settings": "5% acetophenone, 60 minutes", "procedure": "as §1"}, "OSNs expressing olfr229": {"system": "OSNs expressing olfr229", "test": "pS6 immunolabeling with OR in situ hybridization after odorant exposure", "assay_type": "in vivo, mouse", "settings": "5% acetophenone, 60 minutes", "procedure": "as §1"}, "OSNs expressing olfr160": {"system": "OSNs expressing olfr160", "test": "pS6 immunolabeling with OR in situ hybridization after odorant exposure", "assay_type": "in vivo, mouse", "settings": "5% acetophenone, 60 minutes", "procedure": "as §1"}, "[3]": {"system": "neurons expressing Olfr145", "test": "pS6 immunolabeling with OR in situ hybridization after odorant exposure", "assay_type": "in vivo, mouse", "settings": "60 minutes", "procedure": "as §1"}, "OSNs expressing olfr556": {"system": "OSNs expressing olfr556", "test": "pS6 immunolabeling with OR in situ hybridization after odorant exposure", "assay_type": "in vivo, mouse", "settings": "5% acetophenone, 60 minutes", "procedure": "as §1"}, "OSNs expressing olfr1377": {"system": "OSNs expressing olfr1377", "test": "pS6 immunolabeling with OR in situ hybridization after odorant exposure", "assay_type": "in vivo, mouse", "settings": "5% acetophenone, 60 minutes", "procedure": "as §1"}, "OSNs expressing olfr901": {"system": "OSNs expressing olfr901", "test": "pS6 immunolabeling with OR in situ hybridization after odorant exposure", "assay_type": "in vivo, mouse", "settings": "5% acetophenone, 60 minutes", "procedure": "as §1"}, "OSNs expressing olfr19": {"system": "OSNs expressing olfr19", "test": "pS6 immunolabeling with OR in situ hybridization after odorant exposure", "assay_type": "in vivo, mouse", "settings": "5% acetophenone, 60 minutes", "procedure": "as §1"}, "OSNs expressing olfr745": {"system": "OSNs expressing olfr745", "test": "pS6 immunolabeling with OR in situ hybridization after odorant exposure", "assay_type": "in vivo, mouse", "settings": "5% acetophenone, 60 minutes", "procedure": "as §1"}, "[4]": {"system": "neurons expressing Olfr983", "test": "pS6 immunolabeling with OR in situ hybridization after odorant exposure", "assay_type": "in vivo, mouse", "settings": "60 minutes", "procedure": "as §1"}, "OSNs expressing olfr143": {"system": "OSNs expressing olfr143", "test": "pS6 immunolabeling with OR in situ hybridization after odorant exposure", "assay_type": "in vivo, mouse", "settings": "5% acetophenone, 60 minutes", "procedure": "as §1"}, "OSNs expressing olfr935": {"system": "OSNs expressing olfr935", "test": "pS6 immunolabeling with OR in situ hybridization after odorant exposure", "assay_type": "in vivo, mouse", "settings": "5% acetophenone, 60 minutes", "procedure": "as §1"}}}
{"compound": "CC(=O)c1ccccc1", "note": "[acetophenone]", "values": [{"measurement": "Olfr556 transcript modulation (RNAseq)", "setting": "Olfr556 [1]", "result": "downregulated"}, {"measurement": "EC50", "setting": "Olfr556 [2]", "result": "< 50", "unit": "µM"}, {"measurement": "olfr478 ps6 positive", "setting": "OSNs expressing olfr478", "result": "y (neuronal activation (i.e. pS6 signal in a fraction of neuron exceeding 15% relative to controls))"}, {"measurement": "olfr922 ps6 positive", "setting": "OSNs expressing olfr922", "result": "y (neuronal activation (i.e. pS6 signal in a fraction of neuron exceeding 15% relative to controls))"}, {"measurement": "olfr109 ps6 positive", "setting": "OSNs expressing olfr109", "result": "y (neuronal activation (i.e. pS6 signal in a fraction of neuron exceeding 15% relative to controls))"}, {"measurement": "olfr30 ps6 positive", "setting": "OSNs expressing olfr30", "result": "y (neuronal activation (i.e. pS6 signal in a fraction of neuron exceeding 15% relative to controls))"}, {"measurement": "olfr229 ps6 positive", "setting": "OSNs expressing olfr229", "result": "y (neuronal activation (i.e. pS6 signal in a fraction of neuron exceeding 15% relative to controls))"}, {"measurement": "olfr160 ps6 positive", "setting": "OSNs expressing olfr160", "result": "y (neuronal activation (i.e. pS6 signal in a fraction of neuron exceeding 15% relative to controls))"}, {"measurement": "olfr145 ps6 positive", "setting": "[3]; 5% acetophenone", "result": "y (neuronal activation (i.e. pS6 signal in a fraction of neuron exceeding 15% relative to controls))"}, {"measurement": "fraction of Olfr145-expressing neurons positive for pS6", "setting": "[3]; 5% odorant, in vivo", "result": 70, "unit": "%"}, {"measurement": "olfr556 ps6 positive", "setting": "OSNs expressing olfr556", "result": "y (neuronal activation (i.e. pS6 signal in a fraction of neuron exceeding 15% relative to controls))"}, {"measurement": "olfr1377 ps6 positive", "setting": "OSNs expressing olfr1377", "result": "y (neuronal activation (i.e. pS6 signal in a fraction of neuron exceeding 15% relative to controls))"}, {"measurement": "olfr901 ps6 positive", "setting": "OSNs expressing olfr901", "result": "y (neuronal activation (i.e. pS6 signal in a fraction of neuron exceeding 15% relative to controls))"}, {"measurement": "olfr19 ps6 positive", "setting": "OSNs expressing olfr19", "result": "y (neuronal activation (i.e. pS6 signal in a fraction of neuron exceeding 15% relative to controls))"}, {"measurement": "olfr745 ps6 positive", "setting": "OSNs expressing olfr745", "result": "y (neuronal activation (i.e. pS6 signal in a fraction of neuron exceeding 15% relative to controls))"}, {"measurement": "olfr983 ps6 positive", "setting": "[4]; 5% acetophenone", "result": "y (neuronal activation (i.e. pS6 signal in a fraction of neuron exceeding 15% relative to controls))"}, {"measurement": "fraction of Olfr983-expressing neurons positive for pS6", "setting": "[4]; 5% odorant, in vivo", "result": 66, "unit": "%"}, {"measurement": "olfr143 ps6 positive", "setting": "OSNs expressing olfr143", "result": "y (neuronal activation (i.e. pS6 signal in a fraction of neuron exceeding 15% relative to controls))"}, {"measurement": "olfr935 ps6 positive", "setting": "OSNs expressing olfr935", "result": "y (neuronal activation (i.e. pS6 signal in a fraction of neuron exceeding 15% relative to controls))"}]}
